“Also recorded” adds a separate entry of the source.
What was measured:
M. mazei topo VI [1] = target: T1, M. mazei topo VI (Methanosarcina mazei, UniProt Q8PUB7+Q8PUB8); test: Pyruvate kinase-linked ATPase assay; type: biochemical; conditions: data not shown
T1 construct: His tag; made in house
Method: ATPase assays were performed essentially as described previously except they were adapted to a microplate format using clear, colourless 96-well Microtitre plates (Pro-bind™, Becton Dickinson). Reactions were carried out in 100 µL of the established reaction buffer for either DNA gyrase of M. mazei topo VI [36], [62] supplemented with: 800 µM phosphoenolpyruvate (PEP), 400 µM NADH, 1% (vol/vol) PK/LDH (pyruvate kinase-lactate dehydrogenase mixture in 50% (w/v) glycerol,100 mM KCl, 10 mM HEPES (pH 7.0)) and the desired concentration of hit compound. ATP was initially withheld from the reaction. After 5 min incubation at room temperature the reactions were initiated by the addition of ATP and the absorbance at 340 nm was measured over the course of an hour using a Spectra Max Plus absorbance reader (Molecular Devices). Data were processed by omitting the first 10–15 min of collection and normalising the first retained time point. This was done to exclude artifacts observed within this time frame and for ease of comparison of rates. Controls lacking topoisomerase were used to assess the intrinsic ATPase activity of the test compounds.

S. shibatae topo VI [2] = target: T2, S. shibatae topo VI (Saccharolobus shibatae, UniProt O05207+O05208); test: Gel-based relaxation assay with S. shibatae topo VI; type: biochemical, Sulfolobus shibatae
T2 construct: gift from Danielle Gadelle (University of Paris XI, Orsay)
T2 sequence (O05207 whole entry): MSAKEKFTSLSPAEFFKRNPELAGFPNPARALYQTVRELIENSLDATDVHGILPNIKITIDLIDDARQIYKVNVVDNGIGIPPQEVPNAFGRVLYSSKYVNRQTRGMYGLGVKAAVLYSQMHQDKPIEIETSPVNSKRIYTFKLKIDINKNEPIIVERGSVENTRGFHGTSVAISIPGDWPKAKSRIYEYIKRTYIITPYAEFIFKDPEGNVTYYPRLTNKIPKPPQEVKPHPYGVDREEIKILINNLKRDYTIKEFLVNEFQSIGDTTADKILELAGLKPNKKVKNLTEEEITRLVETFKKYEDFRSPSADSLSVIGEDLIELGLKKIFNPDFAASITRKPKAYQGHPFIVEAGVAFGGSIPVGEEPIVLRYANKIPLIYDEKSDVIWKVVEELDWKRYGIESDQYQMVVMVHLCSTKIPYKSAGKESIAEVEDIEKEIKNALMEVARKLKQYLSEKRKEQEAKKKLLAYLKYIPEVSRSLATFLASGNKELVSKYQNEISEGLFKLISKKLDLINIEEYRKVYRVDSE
T2 sequence (O05208 whole entry): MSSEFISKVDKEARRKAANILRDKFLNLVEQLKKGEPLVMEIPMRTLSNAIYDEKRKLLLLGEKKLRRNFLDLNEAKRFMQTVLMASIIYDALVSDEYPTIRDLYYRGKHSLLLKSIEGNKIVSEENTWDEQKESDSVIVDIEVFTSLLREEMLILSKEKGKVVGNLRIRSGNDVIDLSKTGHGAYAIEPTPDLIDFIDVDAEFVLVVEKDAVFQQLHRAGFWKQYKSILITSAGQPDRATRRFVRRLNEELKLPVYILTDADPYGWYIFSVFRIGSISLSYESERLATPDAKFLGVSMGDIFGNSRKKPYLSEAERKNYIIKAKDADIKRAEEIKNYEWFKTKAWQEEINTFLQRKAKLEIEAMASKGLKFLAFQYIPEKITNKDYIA
Method: (§1) The agarose gel-based assay was conducted as previously described, [44], [62]. In brief, topoisomerases were incubated with 0.5 µg of plasmid and the desired concentration of compound for 30 min at 37°C (for DNA gyrase and M. mazei topo VI) or 5 min at 75°C (for S. shibatae topo VI), in a total volume of 30 µL. […] Reactions were stopped by the addition of a loading buffer containing EDTA and the drug extracted by vortexing with either chloroform or aqueous butanol as required. In the case of M. mazei topo VI, it was necessary to include SDS in the loading buffer, at a final concentration of 1%. Samples were loaded onto a 1% agarose gel, run for the appropriate length of time and stained with ethidium bromide before visualisation on a UV transilluminator.

[3] = system: Arabidopsis thaliana hypocotyl cells; test: Cryo-SEM of Arabidopsis hypocotyls (cell size); type: in vivo; conditions: 40 µM, 5 days in the dark; control ∼300 µm
Text: Five day old hypocotyls grown on media containing various concentrations of compound were frozen in nitrogen slush and loaded into a Philips XL30 SEM with a cryo stage installed. Samples were sputter coated with platinum and transferred into the microscope chamber for image collection.

[4] = system: Arabidopsis thaliana columbia (Col-0); test: Arabidopsis hypocotyl extension assay and plant growth; type: in vivo
Method: The hypocotyl extension assay was conducted as previously described, [66]. MS Salts medium (containing micro and macro elements including vitamins, pH 5.8) was supplemented with 1 g/L sucrose and 0.7 g/L phytagel (Sigma) before autoclaving. After the medium cooled to ∼50°C it was divided into 50 mL aliquots and compounds to be tested (or an equivalent amount of appropriate solvent for control plates) then added at the desired concentration under aseptic conditions. The media were then poured into separate 100 mm square Petri dishes and allowed to cool to room temperature in a laminar flow hood. Arabidopsis thaliana columbia (Col-0) seeds were surface sterilised with 5% bleach for 10 min immediately prior to use. The seeds were then washed three times with sterile water under a laminar flow hood. After surface sterilisation the seeds were planted in a grid pattern (32 seeds per dish) and the dishes sealed with surgical tape. The plates were transferred to 4°C and left for 64 h in the dark to vernalise, after which they were transferred to a 22°C growth cabinet. After 2 h of light exposure the plates were stacked vertically in the dark at 22°C to allow for hypocotyl extension along the agar surface. After 4–5 days the hypocotyls were observed using an optical microscope and their length measured. For experiments where the plants were allowed to form rosettes, the Arabidopsis seedlings were grown horizontally under a 16 h day in a 22°C growth cabinet for the indicated number of weeks.

M. mazei topo VI [5] = target: T1, M. mazei topo VI; test: Agarose gel-based DNA relaxation assay; type: biochemical; conditions: for IC50: gel relaxation assay, 1 unit (50 nM) topo VI, read-out: Approx. IC50 against M. mazei topo VI; for Mechanism (Topo VI): summary of mechanistic tests with M. mazei and S. shibatae topo VI
Method: as §1

E. coli DNA gyrase [6] = target: T3, E. coli DNA gyrase (Escherichia coli, UniProt P0AES4+P0AES6); test: Agarose gel-based DNA supercoiling assay; type: biochemical; conditions: for IC50: gel supercoiling assay, 1 unit of gyrase (12 nM), read-out: Approx. IC50 against E. coli DNA gyrase; for Mechanism (DNA gyrase): summary of this study's mechanistic tests
T3 construct: made in house
T3 sequence (P0AES4 whole entry, one chain of several): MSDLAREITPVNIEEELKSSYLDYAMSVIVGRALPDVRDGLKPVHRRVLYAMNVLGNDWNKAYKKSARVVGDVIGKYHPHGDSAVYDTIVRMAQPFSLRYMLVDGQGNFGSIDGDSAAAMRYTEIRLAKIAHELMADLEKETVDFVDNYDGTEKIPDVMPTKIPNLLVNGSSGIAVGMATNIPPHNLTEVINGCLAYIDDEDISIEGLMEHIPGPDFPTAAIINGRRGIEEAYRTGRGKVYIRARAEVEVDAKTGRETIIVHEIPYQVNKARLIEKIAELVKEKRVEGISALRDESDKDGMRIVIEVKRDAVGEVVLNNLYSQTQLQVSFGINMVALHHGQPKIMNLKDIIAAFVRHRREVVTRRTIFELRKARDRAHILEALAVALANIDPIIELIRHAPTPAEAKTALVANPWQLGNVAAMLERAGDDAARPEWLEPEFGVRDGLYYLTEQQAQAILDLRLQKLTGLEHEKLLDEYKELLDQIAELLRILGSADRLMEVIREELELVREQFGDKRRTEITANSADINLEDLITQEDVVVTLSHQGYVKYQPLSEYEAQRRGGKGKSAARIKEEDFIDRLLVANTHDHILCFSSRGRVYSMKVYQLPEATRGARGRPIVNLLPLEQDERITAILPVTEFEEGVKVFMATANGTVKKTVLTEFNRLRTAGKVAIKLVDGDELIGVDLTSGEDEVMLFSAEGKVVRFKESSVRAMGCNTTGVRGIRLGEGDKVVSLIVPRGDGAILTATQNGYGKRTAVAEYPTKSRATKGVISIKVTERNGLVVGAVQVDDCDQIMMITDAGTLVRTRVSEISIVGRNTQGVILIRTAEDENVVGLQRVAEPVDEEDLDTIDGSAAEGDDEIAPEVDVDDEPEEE
Method: as §1

E. coli DNA gyrase [7] = target: T3, E. coli DNA gyrase; test: Gel-based gyrase-mediated DNA cleavage assay; type: biochemical; conditions: absence of ATP
Method: (§2) Assays to detect the stabilisation of cleavage complexes were identical to the protocol for topoisomerase activity detailed above, except as follows. Cleavage experiments with DNA gyrase were carried out in the absence of ATP and spermidine and 30 µL reactions were stopped with 3 µL 10% SDS and incubated with 3 µL 1 mg/mL proteinase K solution at 37°C for 1 h. For cleavage complex protection assays with suramin, the reaction buffer was modified to contain 4 mM CaCl2 rather than MgCl2.

[8] = target: T4, M. mazei DNA topoisomerase VI (Methanosarcina mazei, UniProt Q8PUB7+Q8PUB8); test: DNA triplex-based microtitre plate screen, topo VI relaxation; type: biochemical; conditions: 25 µM compound, duplicate
T4 construct: His tag; made in house
T4 sequence (Q8PUB8 whole entry): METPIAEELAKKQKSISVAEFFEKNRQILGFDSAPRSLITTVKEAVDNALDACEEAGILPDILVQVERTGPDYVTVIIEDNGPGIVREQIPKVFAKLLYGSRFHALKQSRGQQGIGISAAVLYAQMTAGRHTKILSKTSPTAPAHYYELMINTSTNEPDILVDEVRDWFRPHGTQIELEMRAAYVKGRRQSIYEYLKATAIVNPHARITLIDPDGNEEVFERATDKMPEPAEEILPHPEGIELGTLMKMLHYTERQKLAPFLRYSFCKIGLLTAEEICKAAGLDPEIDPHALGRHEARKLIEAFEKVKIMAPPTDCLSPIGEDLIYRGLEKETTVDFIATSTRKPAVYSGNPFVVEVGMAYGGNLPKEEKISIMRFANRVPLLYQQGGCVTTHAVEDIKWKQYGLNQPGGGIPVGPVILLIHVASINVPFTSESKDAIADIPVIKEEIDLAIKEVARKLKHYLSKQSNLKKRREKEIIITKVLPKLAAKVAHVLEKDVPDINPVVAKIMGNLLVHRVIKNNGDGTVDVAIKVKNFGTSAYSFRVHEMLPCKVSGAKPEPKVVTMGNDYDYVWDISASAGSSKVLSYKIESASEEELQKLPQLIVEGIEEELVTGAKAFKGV
T4 sequence (Q8PUB7 whole entry): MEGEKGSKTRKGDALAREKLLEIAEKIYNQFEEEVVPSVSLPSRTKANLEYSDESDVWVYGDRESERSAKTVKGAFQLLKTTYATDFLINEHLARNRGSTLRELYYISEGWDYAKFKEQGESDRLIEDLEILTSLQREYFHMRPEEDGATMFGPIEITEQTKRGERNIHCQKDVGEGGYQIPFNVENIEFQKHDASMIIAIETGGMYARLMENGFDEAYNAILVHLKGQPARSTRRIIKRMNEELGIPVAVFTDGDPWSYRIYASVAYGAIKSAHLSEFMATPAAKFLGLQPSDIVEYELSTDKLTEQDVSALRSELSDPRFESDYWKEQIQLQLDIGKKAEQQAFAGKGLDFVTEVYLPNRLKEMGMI
Method: The triplex-based assay was conducted as previously described [45]–[47]. In brief, oligonucleotide TFO1 was immobilised onto a streptavidin-coated microtitre plate. Excess oligonucleotide was removed by washing with buffer. Topoisomerase reactions were carried out in a 30 μL reaction volume containing 1–2 units topoisomerase and 1 μg relaxed or negatively supercoiled pNO1 under the published reaction conditions, [47]; gyrase supercoiling: 35 mM Tris•HCl (pH 7.5), 24 mM KCl, 4 mM MgCl2, 2 mM DTT, 1.8 mM spermidine, 1 mM ATP, 6.5% (w/v) glycerol, 0.1 mg/mL bovine serum albumin; topo VI relaxation: 20 mM bis-tris propane (pH 6.5), 100 mM potassium glutamate, 10 mM MgCl2, 1 mM DTT, 1 mM ATP. […] The DNA retained on the plate was stained with SYBR Gold (Sigma) dye and the fluorescence readings for each well read in a SpectraMax Gemini fluorimeter (Molecular Devices).
Twelve plates were screened in duplicate over three days manually using a multichannel pipette as previously described. […] Once the data had been collected from the screen, the fluorescence signals for the duplicates were averaged and converted into percentage inhibition using the positive and negative controls. […] To analyse the degree of separation between a negative and positive result the Z' factor [51] for the assay was calculated from the data for the control reactions (Equation 1). […]

M. smegmatis mc^2155 = test: Bacterial growth inhibition and colony counting; type: cell-based, Mycobacterium smegmatis
Method: (§3) For E. coli work, 10 mL cultures of E. coli MG1655 or NR698 were grown overnight at 37°C in LB medium. A 100 µL sample was then added to 10 mL of LB medium containing the desired concentration of compound. The culture was then allowed to grow at 37°C for 5 h and its OD600 measured every hour. For M. smegmatis, a 50 mL culture was grown for 48 h in Middlebrooks 7H11 medium at 37°C. A 100 µL sample was then added to 10 mL of Middlebrooks 7H11 containing the desired concentration of compound. The culture was then allowed to grow at 37°C for 9 h and its OD600 measured every three hours. For colony counting experiments M. smegmatis was grown for 48 h in 50 mL of Middlebrooks 7H9 medium at 37°C. A 100 µL sample was then added to 10 mL of Middlebrooks 7H9 medium containing the desired concentration test compound and allowed to grow at 37°C overnight. After 16 h, 20 µL samples were taken from these cultures and diluted 1 in 10,000 with Middlebrooks 7H9 medium. Petri dishes containing Middlebrooks 7H11 agar were prepared and 100 µL of each diluted culture was spread out. The plates were subsequently stored at 4°C. This was repeated every three hours for six hours, after which the plates were transferred to 37°C for 48 h. The numbers of colonies for each time point were counted manually.

E. coli strain NR698 = test: Bacterial growth inhibition, membrane-permeable strain; type: cell-based, Escherichia coli; conditions: liquid and solid media
Method: as §3

E. coli MG1655 = test: Bacterial growth inhibition; type: cell-based, Escherichia coli; conditions: liquid and solid media
Method: as §3

S. shibatae topo VI [9] = target: T2, S. shibatae topo VI; test: Protection from ADPNP-induced, S. shibatae topo VI-mediated DNA cleavage; type: biochemical, Sulfolobus shibatae
Method: as §2

E. coli DNA gyrase [10] = target: T3, E. coli DNA gyrase; test: Protection from Ca2+-induced, gyrase-mediated DNA cleavage; type: biochemical; conditions: 80 µM, 4 mM calcium chloride
Method: as §2

M. mazei topo VI [11] = target: T1, M. mazei topo VI; test: Native gel shift assay, topo VI binding to 147 bp DNA fragment
Method: (§4) In order to test the effects of hit compounds upon DNA binding by topoisomerases, samples of enzyme and drug were prepared under the following conditions in a final volume of 10 μL: 1 nM 147 bp linear fragment of DNA derived from pBR322, [82] 50 mM Tris•HCl (pH 7.5), 100 mM KCl, 5 mM MgCl2, 2 mM DTT, 10% w/v glycerol. Samples were incubated for 30 min at room temperature before being run on a 5% (29:1) Protogel acrylamide (National Diagnostics) gel in 90 mM Tris·Borate, 5 mM MgCl2 at 150 V for 45 min. The DNA was stained by soaking in 2 µg/mL ethidium bromide for 10 min and visualised under UV light.

E. coli DNA gyrase [12] = target: T3, E. coli DNA gyrase; test: Native gel-shift assay, gyrase binding to 147 bp DNA fragment; conditions: 100 µM
Method: as §4

T1 sequence (Q8PUB8 whole entry): as the sequence (Q8PUB8 whole entry) above
T1 sequence (Q8PUB7 whole entry): as the sequence (Q8PUB7 whole entry) above

| Compound | Inhibition of S. shibatae topo VI (S. shibatae topo VI [2]) | Inhibition in gel-based relaxation assay (hit validation) (M. mazei topo VI [5]) | IC50 (M. mazei topo VI [5]) [µM] | Inhibition in gel-based supercoiling assay (hit validation) (E. coli DNA gyrase [6]) | IC50 (E. coli DNA gyrase [6]) [µM] | Mechanism (DNA gyrase) (E. coli DNA gyrase [6]) | Inhibition of growth / antimicrobial activity (E. coli strain NR698) | Inhibition of growth / antimicrobial activity (E. coli MG1655) | Mechanism (Topo VI) (M. mazei topo VI [5]) | other results |
| --- | --- | --- | --- | --- | --- | --- | --- | --- | --- | --- |
| CCCCCCc1ccc(O)cc1O [Hexylresorcinol] | did not display any inhibition | validated as hits | 30 |  |  |  |  |  |  | Effect on M. mazei topo VI ATPase activity (M. mazei topo VI [1]): appeared to increase the rate of ATP hydrolysis; Effect on M. mazei topo VI ATPase activity (M. mazei topo VI [1]; listed as hexylresorcinol): appears to stimulate hydrolysis of ATP; Hypocotyl cell size, seedlings with dwarf morphology [3]: ~50 µm; Average hypocotyl length ([4]; 40 µM): considerably reduced; Plants able to develop into a rosette ([4]; 40 µM, three-week-old plants): seven of the 32 plants; Average length of seedlings (hypocotyl) ([4]; 50 µM, 10 mm in the absence of drug, 5 days in the dark): approximately 1 mm; Seed germination ([4]; 80 µM): germination was reduced; Seed germination ([4]; 100 µM): completely preventing seed germination; also recorded: no seeds germinated; Number of seeds germinated ([4]; up to 50 µM): remained constant |
| O=C1c2c(O)ccc(O)c2C(=O)c2c(NCCNCCO)ccc(NCCNCCO)c21 [Mitoxantrone] |  | found to inhibit M. mazei topo VI | 2 | displayed inhibition | 12 | Cleavage-complex stabiliser | no inhibition of growth | no inhibition of growth | Prevents cleavage | Induction of gyrase-mediated DNA cleavage (E. coli DNA gyrase [7]; 10 µM): strongly induced DNA cleavage; Ability to stabilise the gyrase cleavage complex (E. coli DNA gyrase [7]; 100 µM): reduced; Outcome in topo VI screen (hit threshold 25% inhibition) [8]: missed during the initial screen; Colony count relative to absence of drug (M. smegmatis mc^2155; 65 μM, grown in liquid media then plated onto drug-free agar): 2%; Inhibition of growth (M. smegmatis mc^2155; liquid broth / liquid cultures): strongly inhibited the growth; also recorded: found to inhibit the growth; Prevention of ADPNP-induced DNA cleavage by S. shibatae topo VI (S. shibatae topo VI [9]): appeared to prevent ADPNP-induced cleavage |
| Cc1ccc(C(=O)Nc2ccc(S(=O)(=O)O)c3cc(S(=O)(=O)O)cc(S(=O)(=O)O)c23)cc1NC(=O)c1cccc(NC(=O)Nc2cccc(C(=O)Nc3cc(C(=O)Nc4ccc(S(=O)(=O)O)c5cc(S(=O)(=O)O)cc(S(=O)(=O)O)c45)ccc3C)c2)c1 [Suramin] | did not display any inhibition; also recorded: did not inhibit | validated as hits | 30 | displayed inhibition | 80 | Blocks DNA binding | no antimicrobial activity | no antimicrobial activity | Blocks DNA binding | Protection of DNA from Ca2+-induced cleavage by gyrase (E. coli DNA gyrase [10]): completely protect DNA from cleavage; Induction of gyrase-mediated DNA cleavage (E. coli DNA gyrase [7]; concentration not given): did not display any ability to induce cleavage; Effect on binding of M. mazei topo VI to DNA (M. mazei topo VI [11]): appeared to prevent the binding of topo VI to DNA; also recorded: appeared to prevent G-segment binding; Antimicrobial activity (M. smegmatis mc^2155): no antimicrobial activity; Effect on gel shift of 147 bp DNA by DNA gyrase (E. coli DNA gyrase [12]): abolishes this shift |

Source: publication PMC3582512, “Application of a Novel Microtitre Plate-Based Assay for the Discovery of New Inhibitors of DNA Gyrase and DNA Topoisomerase VI” (PLoS ONE, 2013)
